The text below walks through data of article PMC9823356, “Inhibition of Cancer Cell Proliferation and Bacterial Growth by Silver(I) Complexes Bearing a CH3-Substituted Thiadiazole-Based Thioamide” (Molecules, 2023).

≈ marks a conversion by molar mass, not a printed value. Where “and” joins values, the source holds several entries; their conditions need not be identical. Equal values may be shown once. Read-outs that look alike come from different tables or passages of the source.

In assay [1] the test system is Escherichia coli (E. coli). Put plainly: In vitro antibacterial activity, progressive double dilutions, culture turbidity. Type of assay: cell-based. Conditions: for MIC: ampicillin reference against E.coli (BL21). The text has this:
(§1) The growth of bacteria was estimated by measuring the turbidity of the culture, as previously reported. […] The pH of the media was adjusted to 7.0.

In assay [2] the test system is MRC5 human normal lung cells. Put plainly: MTT cytostatic/cytotoxic assay. Type of assay: cell-based. Conditions: MRC5, 48 h treatment; for IC50: cytocidal/cytotoxic; for GI50: growth inhibition; for TGI: total growth inhibition. The protocol:
(§2) The cell lines were obtained from the American Type of Culture collection (ATCC), except HuP-T3 which was kindly donated from University of Crete, School of Medicine, Greece, and were grown in different culture medium according to the instructions.
(§3) For the determination of the cell viability, it was employed the MTT assay. Cells were plated in 96-well plate at a density of 1 × 10^4 cells/mL per well and maintained for 72 h at 37 °C in a 5% CO2 incubator and grown as monolayers. […] The viability of cultured cells was estimated by a (3-(4,5-imethylthiazol-2-yl)-2,5-diphenyltetrazolium bromide (MTT) metabolic assay as previously described.
(§4) In brief, MTT (Sigma, St Louis, Missouri, USA) was dissolved in PBS in a concentration of 5 mg/mL, filter sterilized, and stored at 4 °C. Then, 50 μL of stock solution was added to each culture and incubated for 3 h at 37 °C. Formazan crystals were solubilized by DMSO (100 μL). Absorbance of the converted dye was measured at a wavelength of 540 nm on ELISA reader (VersaMax Microplate Reader Orleans, USA). […] Using seven absorbance measurements [time 24 h (Ct24), control growth 72 h (Ct72), and test growth in the presence of drug at five concentration levels (Tt72x)], the percentage of growth was calculated at each level of the drug concentrations. The percentage growth inhibition was calculated according to National Cancer Institute (NCI) as: {[(Tt72x) − (Ct24)]/[(Ct72) − (Ct24)]} × 100 for concentrations for which Tt72x>Ct24 and {(Tt72x) − (Ct24)]/(Ct24)} × 100 for concentrations for which Tt72x<Ct24. […] All experiments were carried out in triplicate. A significant difference was presumed to exist when p ≤ 0.05 (two tailed paired t test).

For assay [3], the system named is SKOV-3 ovarian cancer cells. The experiment in a line: MTT cytostatic/cytotoxic assay. Type of assay: cell-based, human. Particulars: SKOV-3, 48 h treatment; for LC50: cytocidal/cytotoxic, read-out: IC50 (the source's name); for GI50: growth inhibition; for TGI: total growth inhibition. As for the experimental part: as §2, §3
as §4, with “Using seven absorbance measurements [time 24 h (Ct24), control growth 72 h (Ct72), and test growth in the presence of drug at five concentration levels (Tt72x)], the percentage of growth was calculated at each level of the drug concentrations.” left out

Assay [4] relates to DMS114 small cell lung cancer cells. Put plainly: MTT cytostatic/cytotoxic assay. Type of assay: cell-based, human. Conditions: DMS114, 48 h treatment; for LC50: cytocidal/cytotoxic, read-out: IC50 (the source's name); for GI50: growth inhibition; for TGI: total growth inhibition. As for the experimental part:
as §2, §3
as §4, with “Using seven absorbance measurements [time 24 h (Ct24), control growth 72 h (Ct72), and test growth in the presence of drug at five concentration levels (Tt72x)], the percentage of growth was calculated at each level of the drug concentrations.” left out

Assay [5] concerns Hup-T3 pancreatic adenocarcinoma cells. Put plainly: MTT cytostatic/cytotoxic assay. Particulars: Hup-T3, 48 h treatment; for IC50: cytocidal/cytotoxic; for GI50: growth inhibition; for TGI: total growth inhibition. The class given is cell-based, human. As for the experimental part: as §2, §3, §4
The test system of assay [6] is PC3 prostate adenocarcinoma cells. Put plainly: MTT cytostatic/cytotoxic assay. The class given is cell-based, human. Conditions: PC3, 48 h treatment; for LC50: cytocidal/cytotoxic, read-out: IC50 (the source's name); for GI50: growth inhibition; for TGI: total growth inhibition. The protocol:
as §2, §3, §4

Assay [7] is described as follows: Reduction of hydrogen peroxide. Particulars: compound 0.1 mM, 20 min, phosphate buffer pH 7.4. As for the experimental part:
In vitro antioxidant activity studies for 1–4 and their free ligands were performed in order to determine their ability to scavenge DPPH, and ABTS free radicals and to reduce H2O2 and was compared with the antioxidant capacity of reference compounds (NDGA, BHT, trolox and ascorbic acid).
The absorbance was measured at 230 nm after 20 min. The antioxidant activity of the compounds was expressed as percent reduction of H2O2 (%H2O2). Ascorbic acid (or vitamin C) was used as an appropriate standard.

Assay [8] deals with Bacillus subtilis (B. subtilis). The experiment in a line: In vitro antibacterial activity, progressive double dilutions, culture turbidity. The class given is cell-based.
Source text: as §1

In assay [9] the test system is Bacillus cereus (B. cereus). Described as above. Type of assay: cell-based.
Source text: as §1

In assay [10] the test system is Staphylococcus aureus (S. aureus). The assay is described as above. The class given is cell-based.
Source text: as §1

The subject of assay [11] is calf-thymus (CT) DNA. The experiment in a line: CT DNA interaction by UV-visible spectroscopy. Particulars: DMSO solution, upon addition of CT DNA; + hyperchromism, – hypochromism.
Description: The UV-visible spectra of CT DNA solution (1.5 × 10^−4 M) were recorded in the presence of each compound at diverse [compound]/[DNA] mixing ratios (r).
[12] abbreviates: Escherichia coli, read-out: MIC.
Where [13] appears, read: value in parentheses, mean ± SD, read-out: IC50.
Setting [14] is: Bacillus subtilis, read-out: IC50.
Where [15] appears, read: Bacillus subtilis, read-out: MIC.
Where [16] appears, read: Escherichia coli, read-out: IC50.
Setting [17] is: Bacillus cereus, read-out: IC50.
Where [18] appears, read: Staphylococcus aureus, read-out: IC50.
Setting [19] is: Staphylococcus aureus, read-out: MIC.

Usually MIC stands for the least concentration at which growth counts as inhibited. Regarding `CC1(C)S[C@@H]2[C@H](NC(=O)[C@H](N)c3ccccc3)C(=O)N2[C@H]1C(=O)O` [Ampicillin, reference compound], in assay [1] (setting [12]), the MIC was 100 µg/mL (≈ 286 µM).
The IC50 is the concentration that gives 50% inhibition. A word on the GI50: it is the concentration giving 50% growth inhibition. Read a high GI50 as lower sensitivity of the cells. With `N.N.[Cl][Pt][Cl]` [Cisplatin, reference compound], in assay [2], the IC50 worked out at 36 ± 2 µM, the GI50 was determined as 8 ± 1 µM and the TGI is reported as 24±2 μΜ.
As to `Cc1n[nH]c(=S)s1.[Cl][Ag].c1ccc(P(c2ccccc2)c2ccccc2)cc1.c1ccc(P(c2ccccc2)c2ccccc2)cc1` [Compound 1, [AgCl(mtdztH)(PPh3)2]], the half-inhibitory concentration (IC50) was 9.2 ± 0.8 µM in assay [2]; 9.2 ± 0.3 µM in assay [5]; 21 µg/mL in assay [8]; 26 ± 4 µM in [8] (setting [13]); “higher than 100 μg/mL” in assay [1]; 81 µg/mL in [9]. Moreover, the 50% inhibitory concentration (IC50) was determined as 101 ± 10.3 µM in assay [9] (setting [13]), 16 µg/mL in assay [10] and 20 ± 3.2 µM in assay [10] (setting [13]). The 50% growth inhibitory concentration (GI50) is 3 ± 0.5 µM in assay [2]; 1.2 ± 0.2 µM in assay [3]; 1.9 ± 0.1 µM in assay [4]; 2.2 ± 0.2 µM in assay [5]; 3 ± 0.3 µM in [6]. In addition, the TGI is given as 5.2±0.5 μΜ in [2]; 3.1±0.4 μΜ in assay [3]; 3.1±0.1 μΜ in assay [4]; 4.1±0.3 μΜ in assay [5]; 5.7±0.5 μΜ in [6]. Moreover, the figures for the LC50 in [3], in assay [4] and in assay [6] were 5.7 ± 0.4 µM, 4.5 ± 0.3 µM and 9.6 ± 0.5 µM, respectively. Besides, the “H2O2 reducing ability (%H2O2)” value in [7] is given as 74.85±0.79%. Also, the minimum inhibitory concentration (MIC) in assay [8] was 100 µg/mL; in assay [1], “higher than 100 μg/mL”; in assay [9] it was 100 µg/mL; in [10], 100 µg/mL. For the same molecule, the “activity against the Gram-(–) E. coli bacteria (in words)” value in assay [1] is on record as “negligible activity”.
On to `Cc1nnc([S][Ag])s1.c1ccc(P(c2ccccc2)c2ccccc2)cc1.c1ccc(P(c2ccccc2)c2ccccc2)cc1.c1ccc(P(c2ccccc2)c2ccccc2)cc1` [Compound 2, [Ag(mtdzt)(PPh3)3]], for which the IC50 in assay [2] was 4.1 ± 0.06 µM; in [5], 4.5 ± 0.2 µM; in [8], 20 µg/mL; in assay [8] (setting [13]), 19 ± 2.8 µM; in [1] it was “higher than 100 μg/mL”; in assay [9], 12.5 µg/mL. The concentration for half-maximal inhibition (IC50) in assay [9] (setting [13]) is 12 ± 1.4 µM; in [10], 17 µg/mL; in [10] (setting [13]), 16 ± 2.6 µM. Further, the GI50 in assay [2] turned out to be 2 ± 0.02 µM; in [3] it was 1.9 ± 0.2 µM; in assay [4], 1.2 ± 0.05 µM; in [5] it was 1.9 ± 0.2 µM; in [6], 2 ± 0.05 µM. The TGI in assay [2] was 3.0±0.05 μΜ; in [3] it was 3.0±0.3 μΜ; in assay [4], 2.6±0.1 μΜ; in [5], 3.2±0.2 μΜ; in assay [6], 3.2±0.12 μΜ. Further, the LC50 in assay [3] worked out at 4.1 ± 0.3 µM; in assay [4], 4 ± 0.25 µM; in [6] it was 4.4 ± 0.15 µM. Further, the “H2O2 reducing ability (%H2O2)” value in assay [7] is 80.59±0.55% and 80%. Besides, the MIC was 100 µg/mL in [8], “higher than 100 μg/mL” in assay [1], 100 µg/mL in assay [9] and 100 µg/mL in assay [10]. Besides, the “activity against the Gram-(–) E. coli bacteria (in words)” value in assay [1] is given as “negligible activity”.
`O=C1O[C@H]([C@@H](O)CO)C(O)=C1O` [L-ascorbic acid, reference compound]: in assay [7], the “H2O2 reducing ability (%H2O2)” value was found to be 60.80±0.20%.
With `c1ccc(P(c2ccccc2)c2ccccc2)cc1` [PPh3, thriphenylphosphine, reference compound], in assay [7], the “H2O2 reducing ability (%H2O2)” value is 87.96±1.32%. For the same molecule, the IC50 result in assay [8] was “higher than 100 μg/mL”; in [8] (setting [13]), above 380 µM; in assay [1], 51 µg/mL; in [1] (setting [13]), 194 ± 2 µM; in assay [9], 70 µg/mL; in assay [9] (setting [13]) it was 267 ± 9 µM. Moreover, the concentration for half-maximal inhibition (IC50) in assay [10] came to 70 µg/mL; in [10] (setting [13]), 267 ± 2.2 µM. Also, the minimal inhibitory concentration (MIC) entry in assay [8], in [1], in assay [9] and in [10] was “higher than 100 μg/mL” throughout.
In the case of `c1ccc(P(CCP(c2ccccc2)c2ccccc2)c2ccccc2)cc1` [dppe, 1,2-bis(diphenylphosphino)ethane, reference compound], the “H2O2 reducing ability (%H2O2)” value in assay [7] is on record as 92.64±0.71%. The half-maximal inhibitory concentration (IC50) in assay [8] (setting [14]), in assay [1] (setting [16]), in assay [9] (setting [17]) and in [10] (setting [18]) was above 100 µg/mL throughout. In addition, the minimum inhibitory concentration (MIC) in assay [8] (setting [15]) is above 100 µg/mL; in assay [1] (setting [12]) it was above 100 µg/mL; in assay [9] (Bacillus cereus, read-out: MIC), above 100 µg/mL; in [10] (setting [19]), above 100 µg/mL.
As for `Cc1nnc(S)s1` [mtdztH, 5-methyl-1,3,4-thiadiazole-2-thiol, reference compound], the “percentage of hyper-/hypochromism ΔA/Aο” value in assay [11] is listed as “–12%”. For the same molecule, the “H2O2 reducing ability (%H2O2)” value in assay [7] amounted to 97.17±0.10%. Moreover, the IC50 in assay [8] (setting [14]) was 53 µg/mL; in assay [8] (Bacillus subtilis, value in parentheses, mean ± SD, read-out: IC50), 401 ± 16.2 µM; in [1] (setting [16]) it was 30 µg/mL; in assay [1] (Escherichia coli, value in parentheses, mean ± SD, read-out: IC50), 227 ± 6 µM; in assay [9] (setting [17]), 21 µg/mL; in [9] (Bacillus cereus, value in parentheses, mean ± SD, read-out: IC50), 159 ± 8.9 µM. Besides, the half-maximal inhibitory concentration (IC50) was 21 µg/mL in assay [10] (setting [18]) and 159 ± 9 µM in assay [10] (Staphylococcus aureus, value in parentheses, mean ± SD, read-out: IC50). The MIC in [8] (setting [15]) is above 100 µg/mL; in assay [1] (setting [12]), above 100 µg/mL; in assay [9] (Bacillus cereus, read-out: MIC), above 100 µg/mL; in [10] (setting [19]), above 100 µg/mL.
